Measured values: patent US20180147140A1, “Treatment and Prevention of ENT Infections” (priority 2016, published 2018)

Tested on: chronic sinusitis
Experiment: Patient Case 1: self-reported Health Related Quality of Life Scale and symptoms
Assay type: in vivo, human
Conditions: treatments before the invention regime
Source text: Person in good health, whose daily med profile includes • Taking one statin generic drug daily • Taking one over the counter multiple vitamin daily • On average two medical exams each year • No diagnosed medical conditions or concerns
Symptoms—blocked nasal passages especially on the right side of the face, continuous hardened yellow translucent pus discharge from right nostril, minor periodic bleeding, nasal sound quality of voice, a propensity for cold virus to linger and a whistle sound while breathing through the nostrils.
The Kaiser treatment program consisted of a saline rinse bulb and recommendation of daily saline sinus rinsing along with a nasal steroid spray available over the counter. […] The patient continued occasional use of the regimen over the following 15 years with no noticeable improvement.
Treatment began on Mar. 9, 2016 with a new and unique product. The formulation used is Composition 1 in the Formulation Example.
Initial treatment was for 14 days, one dose daily in each nostril, approximately ¼ ounce (7.3 milliliters) administered with a nose dropper while the patient was lying down with chin inclined upward—sometimes with head over the edge of bed or pillow to increase the incline of the forehead to be lower than the chin. The patient remained unmoving for five minutes with no blowing of the nose to allow gravity saturation to reach the deep passages. […]

CC1(C)S[C@@H]2[C@H](NC(=O)[C@H](N)c3ccc(O)cc3)C(=O)N2[C@H]1C(=O)O [amoxicillin]
relief of sinusitis symptoms under earlier treatments: no relief from the sinusitis
